Laboratory results from ChEMBL document CHEMBL1201862, “PubChem BioAssay data set” (2004).
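Assay format: 96-well plates, 48-hour exposure. Abbreviation: GI50, concentration required for 50% inhibition of growth.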 Active and inactive are the calls of the source. Rule as the data show it: active = GI50 up to about 1.1 µM and inactive = higher.

Tests used:
Test in all cases: DTP human tumour cell line panel, 48 h
A549 = system: A549
BT-549 = system: BT-549
COLO 205 = system: COLO 205
HL-60 = system: HL-60
HOP-92 = system: HOP-92
HT-29 = system: HT-29
IGROV-1 = system: IGROV-1
KM12 = system: KM12
MCF7 = system: MCF7
MDA-MB-231 = system: MDA-MB-231
NCI-H460 = system: NCI-H460
NCI-H522 = system: NCI-H522
NCI/ADR-RES = system: NCI/ADR-RES
OVCAR-4 = system: OVCAR-4
OVCAR-8 = system: OVCAR-8
PC-3 = system: PC-3
SF-295 = system: SF-295
SF-539 = system: SF-539
SK-MEL-28 = system: SK-MEL-28
SK-MEL-2 = system: SK-MEL-2
SK-MEL-5 = system: SK-MEL-5
SN12C = system: SN12C
SNB-19 = system: SNB-19
TK-10 = system: TK-10
UACC-257 = system: UACC-257
UACC-62 = system: UACC-62
UO-31 = system: UO-31
786-0 = system: 786-0
A498 = system: A498
ACHN = system: ACHN
CAKI-1 = system: CAKI-1
CCRF-CEM = system: CCRF-CEM
DU-145 = system: DU-145
EKVX = system: EKVX
HCT-116 = system: HCT-116
HCT-15 = system: HCT-15
HOP-62 = system: HOP-62
Hs-578T = system: Hs-578T
K562 = system: K562
M14 = system: M14
MDA-MB-435 = system: MDA-MB-435
MDA-N = system: MDA-N
MOLT-4 = system: MOLT-4
NCI-H226 = system: NCI-H226
NCI-H23 = system: NCI-H23
OVCAR-3 = system: OVCAR-3
OVCAR-5 = system: OVCAR-5
RPMI-8226 = system: RPMI-8226
SF-268 = system: SF-268
SK-OV-3 = system: SK-OV-3
SNB-75 = system: SNB-75
SR = system: SR
SW-620 = system: SW-620
T47D = system: T47D
U-251 = system: U-251
LOX IMVI = system: LOX IMVI
Malme-3M = system: Malme-3M
RXF 393 = system: RXF 393
HCC 2998 = system: HCC 2998

Measured: GI50

Cc1cn2c(/C=N/NC(=N)N)c(-c3cc([N+](=O)[O-])c(Cl)cc3Cl)nc2s1
active: COLO 205 0.55 µM | KM12 0.455 µM | MCF7 0.49 µM
inactive: A549 4.06 µM | BT-549 2.51 µM | HL-60 1.61 µM | HOP-92 3.32 µM | HT-29 1.13 µM | IGROV-1 1.8 µM | MDA-MB-231 2.4 µM | NCI-H460 2.29 µM | NCI-H522 1.47 µM | NCI/ADR-RES > 100 µM | OVCAR-4 1.91 µM | OVCAR-8 2.63 µM | PC-3 2.34 µM | SF-295 2.08 µM | SF-539 2.52 µM | SK-MEL-28 2.22 µM | SK-MEL-2 2.35 µM | SK-MEL-5 2.77 µM | SN12C 2.24 µM | SNB-19 1.87 µM | TK-10 2.3 µM | UACC-257 2.24 µM | UACC-62 1.98 µM | UO-31 1.83 µM

COCOCC1CCCN1CN1CCC[C@H]1COCOC (stereo partly specified)
38.3 µM: HCT-15
inactive: 786-0 26.5 µM | A498 > 100 µM | A549 > 100 µM | ACHN > 100 µM | CAKI-1 > 100 µM | CCRF-CEM 39.2 µM | COLO 205 77.8 µM | DU-145 42.8 µM | EKVX > 100 µM | HCT-116 26.9 µM | HL-60 17.6 µM | HOP-62 > 100 µM | HOP-92 > 100 µM | HT-29 70.6 µM | Hs-578T > 100 µM | IGROV-1 > 100 µM | K562 > 100 µM | KM12 > 100 µM | M14 > 100 µM | MCF7 53.1 µM | MDA-MB-231 > 100 µM | MDA-MB-435 > 100 µM | MDA-N > 100 µM | MOLT-4 50.4 µM | NCI-H226 > 100 µM | NCI-H23 > 100 µM | NCI-H460 60.5 µM | NCI-H522 > 100 µM | NCI/ADR-RES > 100 µM | OVCAR-3 > 100 µM | OVCAR-4 > 100 µM | OVCAR-5 > 100 µM | OVCAR-8 > 100 µM | PC-3 > 100 µM | RPMI-8226 33.8 µM | SF-268 > 100 µM | SF-295 > 100 µM | SK-MEL-28 > 100 µM | SK-MEL-2 > 100 µM | SK-MEL-5 > 100 µM | SK-OV-3 > 100 µM | SN12C > 100 µM | SNB-19 > 100 µM | SNB-75 > 100 µM | SR 49.8 µM | SW-620 33.2 µM | T47D > 100 µM | TK-10 > 100 µM | U-251 > 100 µM | UACC-257 > 100 µM | UACC-62 36.6 µM | UO-31 > 100 µM

COc1ccc(CNc2nc(NCc3ccc(OC)c(OC)c3)nc(NC3CCCCC3)n2)cc1
active: MDA-MB-435 0.531 µM | SK-MEL-5 0.716 µM | SR 0.611 µM
0.731 µM: HCT-15
inactive: 786-0 5.64 µM | A549 5.46 µM | ACHN 7.94 µM | BT-549 4.57 µM | CAKI-1 3.17 µM | CCRF-CEM 3.66 µM | COLO 205 2.34 µM | DU-145 3.4 µM | EKVX 10.4 µM | HCT-116 2.69 µM | HL-60 2.77 µM | HOP-92 > 100 µM | HT-29 2.88 µM | Hs-578T 2.49 µM | IGROV-1 4.49 µM | K562 1.24 µM | KM12 1.21 µM | LOX IMVI 5.33 µM | M14 4.61 µM | MCF7 1.29 µM | MDA-MB-231 5.13 µM | MOLT-4 5.22 µM | Malme-3M 37.2 µM | NCI-H226 6.55 µM | NCI-H23 2.86 µM | NCI-H460 2.8 µM | NCI-H522 1.69 µM | NCI/ADR-RES 2.55 µM | OVCAR-3 5.38 µM | OVCAR-4 9.06 µM | OVCAR-5 4.88 µM | OVCAR-8 7.41 µM | PC-3 3.77 µM | RPMI-8226 3.6 µM | RXF 393 2.23 µM | SF-295 2.04 µM | SF-539 2.29 µM | SK-MEL-28 > 100 µM | SK-MEL-2 4.26 µM | SK-OV-3 > 100 µM | SN12C 6.18 µM | SNB-19 > 100 µM | SNB-75 3.38 µM | SW-620 2.89 µM | T47D 4.48 µM | TK-10 18.5 µM | U-251 3.44 µM | UACC-257 > 100 µM | UACC-62 2.3 µM | UO-31 5.18 µM

c1ccc(Nc2nnc(CCCCCCCCc3nnc(Nc4ccccc4)o3)o2)cc1
> 100 µM: HCT-15
inactive: 786-0 > 100 µM | A498 > 100 µM | A549 > 100 µM | ACHN > 100 µM | BT-549 > 100 µM | CAKI-1 > 100 µM | CCRF-CEM > 100 µM | COLO 205 > 100 µM | DU-145 > 100 µM | EKVX > 100 µM | HCC 2998 51.6 µM | HCT-116 > 100 µM | HL-60 > 100 µM | HOP-62 > 100 µM | HT-29 > 100 µM | IGROV-1 60.3 µM | K562 > 100 µM | KM12 > 100 µM | LOX IMVI > 100 µM | M14 > 100 µM | MCF7 > 100 µM | MDA-MB-231 > 100 µM | MDA-MB-435 > 100 µM | MOLT-4 > 100 µM | Malme-3M > 100 µM | NCI-H226 > 100 µM | NCI-H23 > 100 µM | NCI-H460 > 100 µM | NCI-H522 > 100 µM | NCI/ADR-RES > 100 µM | OVCAR-3 > 100 µM | OVCAR-4 > 100 µM | OVCAR-5 > 100 µM | OVCAR-8 > 100 µM | PC-3 > 100 µM | RXF 393 > 100 µM | SF-268 > 100 µM | SF-295 > 100 µM | SF-539 > 100 µM | SK-MEL-28 > 100 µM | SK-MEL-2 > 100 µM | SK-MEL-5 > 100 µM | SK-OV-3 > 100 µM | SN12C > 100 µM | SNB-19 > 100 µM | SNB-75 > 100 µM | SW-620 > 100 µM | TK-10 > 100 µM | U-251 > 100 µM | UACC-257 > 100 µM | UO-31 > 100 µM
